Drawing on ChEMBL document CHEMBL1132802, “Synthesis, chiral chromatographic separation, and biological activities of the enantiomers of 10,10-dimethylhuperzine A” (Bioorg Med Chem Lett, 2000), this text covers Control, Ki and half-life for 6 molecules.

For data set [1], the species on record is Rattus norvegicus. The data set is described as follows: Effect of pretreatment on the survival of the rat embryonic forebrain neurons when exposed to glutamate. The data set is classed as functional.
In data set [2] the target is T1, Acetylcholinesterase (Bos taurus, UniProt P23795).
T1 sequence (P23795 whole entry): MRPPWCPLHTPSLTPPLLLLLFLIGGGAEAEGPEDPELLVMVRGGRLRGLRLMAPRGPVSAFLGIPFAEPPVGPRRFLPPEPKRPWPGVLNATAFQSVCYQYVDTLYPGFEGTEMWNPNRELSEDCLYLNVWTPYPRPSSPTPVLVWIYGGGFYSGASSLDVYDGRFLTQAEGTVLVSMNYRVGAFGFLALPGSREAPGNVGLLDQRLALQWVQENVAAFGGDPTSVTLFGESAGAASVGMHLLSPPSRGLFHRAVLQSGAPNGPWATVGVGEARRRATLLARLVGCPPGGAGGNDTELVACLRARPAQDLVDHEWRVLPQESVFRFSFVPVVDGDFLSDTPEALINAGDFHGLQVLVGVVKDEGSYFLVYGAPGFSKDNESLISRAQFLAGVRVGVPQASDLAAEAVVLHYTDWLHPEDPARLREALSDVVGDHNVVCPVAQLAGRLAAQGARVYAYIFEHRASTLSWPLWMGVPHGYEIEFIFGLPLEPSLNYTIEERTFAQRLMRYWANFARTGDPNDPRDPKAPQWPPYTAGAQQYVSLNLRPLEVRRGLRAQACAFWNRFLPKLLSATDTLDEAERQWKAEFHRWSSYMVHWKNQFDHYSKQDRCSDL
The data set is described as follows: Binding affinity towards Acetylcholinesterase from fetal bovine serum.

Data set [3] is described as follows: Half life period was determined. The data set is classed as ADME. As to conditions: rat.

On to `C/C=C1\C2C=C(C)C[C@]1(N)c1ccc(O)nc1C2(C)C.NC(CCC(=O)O)C(=O)O` (stereo in doubt; form 2), for which the Control in data set [1] is 71.7%.

Consider `N[C@@H](CCC(=O)O)C(=O)O` [GLUTAMIC ACID], for which the Control in data set [1] is given as 43.7%.

As for `C/C=C1\C2C=C(C)C[C@]1(N)c1ccc(O)nc1C2(C)C` (stereo in doubt; form 4), the Ki in data set [2] turned out to be 0.0077 µM.

Molecule `C/C=C1\[C@H]2C=C(C)C[C@]1(N)c1ccc(=O)[nH]c1C2` [HUPERZINE A] displayed a half-life in data set [3] of 35 min.

With `C/C=C1\C2C=C(C)C[C@]1(N)c1ccc(O)nc1C2(C)C.NC(CCC(=O)O)C(=O)O` (stereo in doubt; form 3), the Control in data set [1] was determined as 71.3%.

In turn, `C/C=C1\C2C=C(C)C[C@]1(N)c1ccc(O)nc1C2(C)C` (stereo in doubt; form 1) gave an inhibition constant (Ki) in data set [2] of 0.0309 µM.
